No end group written: not given here.
Experiments:
[1] = system: CD4+ T cells; experiment: Mixed lymphocyte reaction (DCs + CD4+ T cells), cytokine ELISA; assay type: cell-based, human; conditions: MLR; for expression level of INF-γ: ELISA on day 5, vs control groups (P<0.01 or P<0.05)
Procedure: Identification of the functional activity of TIM3-targeting binding peptides was performed by evaluating the levels of activation and proliferation of T cells, i.e., the levels of expression of IL-2 and IFN-γ cytokines. First, Dendritic Cells (DCs) and CD4+T cells were obtained by magnetic bead sorting, and then the levels of IFN-γ cytokines and IL-2 were detected by a Mixed Lymphocyte Reaction (MLR) experiment simulating close to human physiological environment and an ELISA experiment, to identify biological activities of the TIM3-targeting binding peptides.
Culture of Dendritic cells (DCs): Isolated dendritic cells (DCs) were cultured in Mo-DC differentiation medium (10^7 cells/10 mL medium), and 10 mL of the same medium was added to the cells after 3 days (the cells were cultured in the differentiation medium at 37° C., 5% CO2 and >95% humidity for 6 days). On day 7, DCs were resuspended in Mo-DC mature medium and cultured for further 3 days by addition of the Mo-DC differentiation medium. Matured DC and newly isolated T cells (DC and T cells from different donors) were mixed for mixed lymphocyte reaction. Approximately 1×10^4 DCs and 1×10^5 T cells per well were mixed and cultured in 200 μL RPMI-1640 medium with 10% FBS. To evaluate the activity (gradient action), competitive inhibition (P26 and ligand), synergistic effect (TIM3-targeting binding peptides and the PD-1 inhibitor Opdivo) of the binding peptides TIM3-targeting binding peptides, the corresponding concentrations of peptides, Opdivo, Galectin-9 were added to the corresponding wells to interact with the cells. The expression levels of IFN-γ (or IL-2) secreted in the cell supernatant were measured on day 5.
T cell activity were tested according to the instructions of the ELISA kit. Briefly, the capture antibody dilutions were coated on a 96-well plate overnight (24 hours) at room temperature at a concentration of 2 μg/mL in a volume of 100 μL. On the following day, the capture antibody solution was aspirated and the wells were washed three times with 300 μL wash buffer PBST (0.05% Tween®20, pH 7.2-7.4). Thereafter, the test wells were blocked with 300 μL of 1% BSA-PBS for 1 hour. After blocking, the test wells were washed in the same manner as above and 100 μL of the test samples or standards (in 1% BSA-PBS) were pipetted into each well for 2 hours. Thereafter, the detection antibody (125 ng/mL, 100 μL) was added to each well according to the instructions of the human IFN-γ/IL-2 Duo Set ELISA kit, and incubated for 2 hours. Then, HRP (100 μL, incubated for 20 minutes) and TMB (100 μL) were added. At the end of each step, each well was washed in the same manner as described above. After completion of the color development, the test wells were terminated with 12.5% H2SO4 (50 μL/well) and read on an ELISA plate reader at a wavelength of 450/570 nm. All experimental test wells were repeated.

[2] = target: T1, TIM3 protein (Homo sapiens, UniProt Q8TDQ0); experiment: SPR affinity of TIM3-targeting binding peptides to immobilized TIM3 protein; conditions: TIM3 sensor chip, dissociation rate
T1 sequence (Q8TDQ0 22-301): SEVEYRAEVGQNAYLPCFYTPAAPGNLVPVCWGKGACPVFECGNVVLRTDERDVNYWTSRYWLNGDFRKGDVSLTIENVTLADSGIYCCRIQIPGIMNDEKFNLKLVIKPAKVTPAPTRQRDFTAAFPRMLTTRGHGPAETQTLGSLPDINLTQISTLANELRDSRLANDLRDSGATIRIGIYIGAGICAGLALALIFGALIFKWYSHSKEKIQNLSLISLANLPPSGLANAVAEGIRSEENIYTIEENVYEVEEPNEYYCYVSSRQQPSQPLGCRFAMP
Procedure: The binding properties of the TIM3-targeting binding peptides to TIM3 and their competition experiments with Galectin-9-bound TIM3 were identified by flow cytometry and surface plasmon resonance (SPROpenSPR, Nicoya, V3.01) detection.
SPR assay: Affinity identification between the TIM3-targeting binding peptides and TIM3 was performed by immobilizing TIM3 protein (50 μg/mL) on the surface of a nanogold sensor chip upon activation of EDC/NHS. The TIM3-targeting binding peptides were diluted with buffer (PBS, pH 7.4) to concentrations of […], 19.5 μM, 39 μM and 78 μM, respectively. The competitive binding ability of the TIM3-targeting binding peptides to the ligand was identified by immobilizing the Galectin-9 protein (25 μg/mL) on a sensor chip at a detection concentration of 100 μg/mL for the TIM3-targeting binding peptides, and at a concentration of the mixed sample of 100 μg/mL TIM3-targeting binding peptides and 10 μg/mL TIM3 protein. The detection sample was loaded at a flow rate of 20 μL/min for about 7 min according to the instrument instructions. The KD, ka and kd values were calculated and analyzed by Trace Drawer Evaluation (version 2.0) software.

[3] = system: MC38-hPDL1 tumor; experiment: In vivo anti-tumor growth in MC38-hPDL1 tumor-bearing mice humanized with TIM3; parameters: species or system C57BL/6J mice transduced with the human TIM3 gene; conditions: 21 days, intraperitoneal, P26 5 mg/kg QD, ATE 10 mg/kg twice a week
Source text: In this example, the anti-tumor growth effect of the TIM3-targeting binding peptides was farther examined in mice. The tumor inhibitory effect of the TIM3-targeting binding peptides on C57BL/6J MC38-hPDL1 tumor-bearing mice humanized with TIM3 was detected by the following experimental steps: 1. Inoculation of mice: […]-hPDL1 tumor cells (1×10^6 cells/mouse) were inoculated subcutaneously into C57BL/6J mice transduced with the human TIM3 gene. 2. Grouping: Mice were randomly divided into 4 groups with 7 mice per group when tumors reached 80 100 mm^3. 3. Administration: PBS (negative control), PD-L1 humanized antibody (positive control), polypeptides alone (experimental group) and polypeptides plus PD-L1 humanized antibody (synergistic effect group) were administered intraperitoneally to mice in each group, respectively. The amount of antibody used was 10 mg/kg twice a week. The amount of polypeptide was 5 mg/kg once daily. Tumor size and body weight of the mice were measured every 3 days. 4. Post-administration treatment: mice were euthanized 3 weeks after administration. Tumors were isolated, weighed, and photographed.

| Sequence | expression level of INF-γ [1] | koff [2] | reversal of Galectin-9-mediated inhibition of CD4+ T cell activation (IFN-γ and IL-2 expression levels) ([1]; P26 100 μg/mL, Galectin-9 5 μg/mL, ELISA) | tumor volumes ([3]; compared to control group) | growth of the tumor (tumor weight) ([3]; vs control group P<0.05) |
| --- | --- | --- | --- | --- | --- |
| HYEADPYEAWYDAWDDIHTY (A TIM3-targeting binding peptide) [K1, 20-peptide targeting TIM3] | significantly increased | – | – | – | – |
| FTYAHPVSHRWESSVHVDQW [K2] | significantly increased | 1.03×10^−2 S^−1 | – | – | – |
| ALWPSSSMSSTI [P1303, ALWPSSSMSSTI] | significantly increased | 3.08×10^−3 S^−1 | – | – | – |
| GSWNTFRAQPTI [P24, GSWNTFRAQPTI] | – | 1.69×10^−5 S^−1 | – | – | – |
| SHDTRSPFTWGR [P1307, SHDTRSPFTWGR] | – | 7.89×10^−3 S^−1 | – | – | – |
| WQQNNPHLWDVFLGVPRTTE [K5] | significantly increased | 1.60×10^−2 S^−1 | – | – | – |
| QNPPLENTVYQEPFWQHAVD (A TIM3-targeting binding peptide) [K7, 20-peptide targeting TIM3] | significantly increased | – | – | – | – |
| SPFYYSGHQWVPHPRQAASY [K10] | significantly increased | 2.30×10^−2 S^−1 | – | – | – |
| GLIPLTTMHIGK (A TIM3-targeting binding peptide) [P26, 12-peptide targeting TIM3] | significantly increased | – | reversed | tended to decrease | inhibited |
| ADFRVMADMSMY [P29, ADFRVMADMSMY] | significantly increased | 7.47×10^−3 S^−1 | – | – | – |
| TFLNSVPTYSYW (A TIM3-targeting binding peptide) [P1310, 12-peptide targeting TIM3] | significantly increased | – | – | – | – |
| SQEVFAWTFSPRWTTAPKAL [K3] | significantly increased | 1.32×10^−2 S^−1 | – | – | – |
| HDAFPRPHLFRN [P1301, HDAFPRPHLFRN] | significantly increased | 4.28×10^−3 S^−1 | – | – | – |

Source: patent publication US20230095558A1, “IMMUNE CHECKPOINT TIM3-TARGETING BINDING PEPTIDE AND APPLICATION THEREOF” (Sparx Biotech (Jiangsu) Co., Ltd., priority 2020, published 2023)
